Assay results taken from the supplement of paper PMC10307832.

How the values were obtained:
Assay in all cases: relative viability (nuclei count vs DMSO), 5 days (fraction); higher = more cells survive
COR-L23 = test system: COR-L23
Summary of the method: (§1)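 One day after seeding in 1536-well plates, lung cancer cell lines were dosed by pin tool. Dosing was either single-drug or a fixed anchor-drug dose plus five library-drug doses (not always all listed) in √10 steps. After 5 days, nuclei were stained in one fix-and-stain step and counted on 4× images, and relative viability is the nuclei count of treated wells over that of vehicle wells, given as the median of duplicate plates.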

SK-MES-1 = test system: SK-MES-1
Summary of the method: as §1

NCI-H1437 = test system: NCI-H1437
Summary of the method: as §1

NCI-H1648 = test system: NCI-H1648
Summary of the method: as §1

NCI-H1651 = test system: NCI-H1651
Summary of the method: as §1

ChaGo-K-1 = test system: ChaGo-K-1
Summary of the method: as §1

SW 1573 = test system: SW 1573
Summary of the method: as §1

Which results are given for `COc1nc(C)cnc1NS(=O)(=O)c1cccnc1-c1ccc(-c2nnco2)cc1` [Zibotentan] + CC(=O)Nc1cccc(-n2c(=O)n(C3CC3)c(=O)c3c(Nc4ccc(I)cc4F)n(C)c(=O)c(C)c32)c1 [Trametinib] (partner 0.02 µM)?
relative viability (COR-L23; first compound 0.08 µM): 0.573; relative viability (COR-L23; first compound 0.253 µM): 0.531; relative viability (COR-L23; first compound 0.8 µM): 0.831; relative viability (COR-L23; first compound 2.53 µM): 0.555; relative viability (SK-MES-1; first compound 0.08 µM): 0.581; relative viability (SK-MES-1; first compound 0.253 µM): 0.533; relative viability (SK-MES-1; first compound 0.8 µM): 0.563; relative viability (SK-MES-1; first compound 2.53 µM): 0.556; relative viability (NCI-H1437; first compound 0.08 µM): 0.533; relative viability (NCI-H1437; first compound 0.253 µM): 0.541; relative viability (NCI-H1437; first compound 0.8 µM): 0.455; relative viability (NCI-H1437; first compound 2.53 µM): 0.496; relative viability (NCI-H1648; first compound 0.08 µM): 0.49; relative viability (NCI-H1648; first compound 0.253 µM): 0.529; relative viability (NCI-H1648; first compound 0.8 µM): 0.442; relative viability (NCI-H1648; first compound 2.53 µM): 0.604; relative viability (NCI-H1651; first compound 0.08 µM): 0.907; relative viability (NCI-H1651; first compound 0.253 µM): 0.794; relative viability (NCI-H1651; first compound 0.8 µM): 0.832; relative viability (NCI-H1651; first compound 2.53 µM): 0.803; relative viability (ChaGo-K-1; first compound 0.08 µM): 0.886; relative viability (ChaGo-K-1; first compound 0.253 µM): 0.899; relative viability (ChaGo-K-1; first compound 0.8 µM): 0.888; relative viability (ChaGo-K-1; first compound 2.53 µM): 0.886; relative viability (SW 1573; first compound 0.08 µM): 0.548; relative viability (SW 1573; first compound 0.8 µM): 0.411; relative viability (SW 1573; first compound 2.53 µM): 0.729

Which results are given for `O=c1cc(-c2cccc3c2Sc2ccccc2S3)oc(N2CCOCC2)c1` + CC(=O)Nc1cccc(-n2c(=O)n(C3CC3)c(=O)c3c(Nc4ccc(I)cc4F)n(C)c(=O)c(C)c32)c1 [Trametinib] (partner 0.02 µM)?
relative viability (COR-L23; first compound 0.08 µM): 0.593; relative viability (COR-L23; first compound 0.253 µM): 0.689; relative viability (COR-L23; first compound 0.8 µM): 0.51; relative viability (COR-L23; first compound 2.53 µM): 0.592; relative viability (COR-L23; first compound 8 µM): 0.689; relative viability (SK-MES-1; first compound 0.08 µM): 0.543; relative viability (SK-MES-1; first compound 0.253 µM): 0.579; relative viability (SK-MES-1; first compound 0.8 µM): 0.448; relative viability (SK-MES-1; first compound 2.53 µM): 0.481; relative viability (SK-MES-1; first compound 8 µM): 0.379; relative viability (NCI-H1437; first compound 0.08 µM): 0.47; relative viability (NCI-H1437; first compound 0.253 µM): 0.64; relative viability (NCI-H1437; first compound 0.8 µM): 0.483; relative viability (NCI-H1437; first compound 2.53 µM): 0.395; relative viability (NCI-H1437; first compound 8 µM): 0.412; relative viability (NCI-H1648; first compound 0.253 µM): 0.515; relative viability (NCI-H1648; first compound 0.8 µM): 0.427; relative viability (NCI-H1648; first compound 8 µM): 0.389; relative viability (NCI-H1651; first compound 0.08 µM): 0.906; relative viability (NCI-H1651; first compound 0.253 µM): 0.709; relative viability (NCI-H1651; first compound 0.8 µM): 0.843; relative viability (NCI-H1651; first compound 2.53 µM): 0.803; relative viability (NCI-H1651; first compound 8 µM): 0.832; relative viability (ChaGo-K-1; first compound 0.08 µM): 0.862; relative viability (ChaGo-K-1; first compound 0.253 µM): 0.935; relative viability (ChaGo-K-1; first compound 0.8 µM): 0.894; relative viability (ChaGo-K-1; first compound 2.53 µM): 0.908; relative viability (ChaGo-K-1; first compound 8 µM): 0.955; relative viability (SW 1573; first compound 0.08 µM): 0.597; relative viability (SW 1573; first compound 0.253 µM): 0.691; relative viability (SW 1573; first compound 0.8 µM): 0.575; relative viability (SW 1573; first compound 2.53 µM): 0.574; relative viability (SW 1573; first compound 8 µM): 0.554

`CCN(CC)CCCCNc1ncc2cc(-c3cc(OC)cc(OC)c3)c(NC(=O)NC(C)(C)C)nc2n1` + Nc1nc2[nH]cc(CCc3ccc(C(=O)N[C@@H](CCC(=O)O)C(=O)O)cc3)c2c(=O)[nH]1 [Pemetrexed] (partner 0.2 µM) was tested. Which relative viability (COR-L23; first compound 0.01 µM) did it give?
The relative viability was 0.208.

What about the relative viability (COR-L23; first compound 0.03162 µM) of the same compound?
The relative viability was 0.188.

And the relative viability (COR-L23; first compound 0.1 µM)?
Its relative viability is 0.192.

What about the relative viability (COR-L23; first compound 0.3162 µM) of the same compound?
The relative viability was 0.196.

What about the relative viability (COR-L23; first compound 1 µM) of the same compound?
Its relative viability is 0.192.

What about the relative viability (SK-MES-1; first compound 0.01 µM) of the same compound?
Its relative viability is 1.11.

And the relative viability (SK-MES-1; first compound 0.03162 µM)?
Its relative viability is 0.94.

What about the relative viability (SK-MES-1; first compound 0.1 µM) of the same compound?
The relative viability was 1.05.

And the relative viability (SK-MES-1; first compound 0.3162 µM)?
Its relative viability is 1.07.

And the relative viability (SK-MES-1; first compound 1 µM)?
Its relative viability is 0.98.

What about the relative viability (NCI-H1437; first compound 0.01 µM) of the same compound?
The relative viability was 0.332.

And the relative viability (NCI-H1437; first compound 0.03162 µM)?
The relative viability was 0.309.

What about the relative viability (NCI-H1437; first compound 0.1 µM) of the same compound?
Its relative viability is 0.324.

And the relative viability (NCI-H1437; first compound 0.3162 µM)?
Its relative viability is 0.328.

And the relative viability (NCI-H1437; first compound 1 µM)?
The relative viability was 0.381.

And the relative viability (NCI-H1648; first compound 0.01 µM)?
The relative viability was 0.7.

What about the relative viability (NCI-H1648; first compound 0.03162 µM) of the same compound?
Its relative viability is 0.815.

What about the relative viability (NCI-H1648; first compound 0.1 µM) of the same compound?
Its relative viability is 0.722.

What about the relative viability (NCI-H1648; first compound 0.3162 µM) of the same compound?
The relative viability was 0.491.

What about the relative viability (NCI-H1648; first compound 1 µM) of the same compound?
Its relative viability is 0.487.

And the relative viability (NCI-H1651; first compound 0.01 µM)?
The relative viability was 0.597.

What about the relative viability (NCI-H1651; first compound 0.03162 µM) of the same compound?
Its relative viability is 0.635.

What about the relative viability (NCI-H1651; first compound 0.1 µM) of the same compound?
The relative viability was 0.643.

What about the relative viability (NCI-H1651; first compound 0.3162 µM) of the same compound?
The relative viability was 0.787.

And the relative viability (NCI-H1651; first compound 1 µM)?
The relative viability was 0.495.

And the relative viability (ChaGo-K-1; first compound 0.01 µM)?
The relative viability was 0.269.

What about the relative viability (ChaGo-K-1; first compound 0.03162 µM) of the same compound?
The relative viability was 0.407.

And the relative viability (ChaGo-K-1; first compound 0.1 µM)?
The relative viability was 0.267.

What about the relative viability (ChaGo-K-1; first compound 0.3162 µM) of the same compound?
The relative viability was 0.272.

And the relative viability (ChaGo-K-1; first compound 1 µM)?
The relative viability was 0.265.

And the relative viability (SW 1573; first compound 0.01 µM)?
The relative viability was 0.858.

What about the relative viability (SW 1573; first compound 0.03162 µM) of the same compound?
The relative viability was 0.843.

And the relative viability (SW 1573; first compound 0.1 µM)?
Its relative viability is 1.08.

And the relative viability (SW 1573; first compound 0.3162 µM)?
The relative viability was 0.944.

What about the relative viability (SW 1573; first compound 1 µM) of the same compound?
Its relative viability is 0.832.

For `O=c1cc(N2CCOCC2)oc2c(-c3cccc4c3sc3ccccc34)cccc12` + CC(=O)Nc1cccc(-n2c(=O)n(C3CC3)c(=O)c3c(Nc4ccc(I)cc4F)n(C)c(=O)c(C)c32)c1 [Trametinib] (partner 0.02 µM), which relative viability (COR-L23; first compound 0.01 µM) is on record?
Its relative viability is 0.617.

And the relative viability (COR-L23; first compound 0.03162 µM)?
The relative viability was 0.614.

What about the relative viability (COR-L23; first compound 0.1 µM) of the same compound?
The relative viability was 0.552.

And the relative viability (COR-L23; first compound 0.3162 µM)?
The relative viability was 0.633.

What about the relative viability (COR-L23; first compound 1 µM) of the same compound?
The relative viability was 0.655.

And the relative viability (SK-MES-1; first compound 0.01 µM)?
Its relative viability is 0.546.

And the relative viability (SK-MES-1; first compound 0.03162 µM)?
Its relative viability is 0.533.

What about the relative viability (SK-MES-1; first compound 0.1 µM) of the same compound?
The relative viability was 0.518.

What about the relative viability (SK-MES-1; first compound 0.3162 µM) of the same compound?
Its relative viability is 0.516.

What about the relative viability (SK-MES-1; first compound 1 µM) of the same compound?
The relative viability was 0.48.

And the relative viability (NCI-H1437; first compound 0.01 µM)?
Its relative viability is 0.693.

What about the relative viability (NCI-H1437; first compound 0.03162 µM) of the same compound?
The relative viability was 0.548.

What about the relative viability (NCI-H1437; first compound 0.1 µM) of the same compound?
Its relative viability is 0.531.

What about the relative viability (NCI-H1437; first compound 0.3162 µM) of the same compound?
The relative viability was 0.508.

What about the relative viability (NCI-H1437; first compound 1 µM) of the same compound?
The relative viability was 0.502.

What about the relative viability (NCI-H1648; first compound 0.03162 µM) of the same compound?
Its relative viability is 0.471.

What about the relative viability (NCI-H1648; first compound 0.1 µM) of the same compound?
The relative viability was 0.5.

And the relative viability (NCI-H1648; first compound 0.3162 µM)?
The relative viability was 0.446.

And the relative viability (NCI-H1648; first compound 1 µM)?
Its relative viability is 0.483.

What about the relative viability (NCI-H1651; first compound 0.01 µM) of the same compound?
Its relative viability is 0.816.

What about the relative viability (NCI-H1651; first compound 0.03162 µM) of the same compound?
The relative viability was 0.818.

And the relative viability (NCI-H1651; first compound 0.1 µM)?
Its relative viability is 0.817.

What about the relative viability (NCI-H1651; first compound 0.3162 µM) of the same compound?
The relative viability was 0.819.

What about the relative viability (NCI-H1651; first compound 1 µM) of the same compound?
Its relative viability is 0.871.

What about the relative viability (ChaGo-K-1; first compound 0.01 µM) of the same compound?
The relative viability was 0.845.

What about the relative viability (ChaGo-K-1; first compound 0.03162 µM) of the same compound?
The relative viability was 0.958.

What about the relative viability (ChaGo-K-1; first compound 0.1 µM) of the same compound?
The relative viability was 0.966.

What about the relative viability (ChaGo-K-1; first compound 0.3162 µM) of the same compound?
The relative viability was 0.893.

And the relative viability (ChaGo-K-1; first compound 1 µM)?
Its relative viability is 0.882.

What about the relative viability (SW 1573; first compound 0.01 µM) of the same compound?
Its relative viability is 0.501.

What about the relative viability (SW 1573; first compound 0.03162 µM) of the same compound?
The relative viability was 0.594.

What about the relative viability (SW 1573; first compound 0.1 µM) of the same compound?
Its relative viability is 0.585.

And the relative viability (SW 1573; first compound 0.3162 µM)?
The relative viability was 0.603.

What about the relative viability (SW 1573; first compound 1 µM) of the same compound?
The relative viability was 0.501.
